Biological target: T1, AKT1-E17K (Homo sapiens, UniProt P31749, E17K)
T1 construct: host or cells: HEK-293 (ATCC CRL-1573)
Experiment: NanoBRET Target Engagement (TE) Assay
Format: cell-based
How it was run: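 Live cells transiently expressing NanoLuc-AKT1 E17K fusion, incubated 2 h with tracer and compound before substrate plus extracellular NanoLuc inhibitor were added. BRET read at 450/600 nm; EC50 from variable-slope sigmoidal fit of tracer displacement.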

T1 sequence (P31749 whole entry E17K): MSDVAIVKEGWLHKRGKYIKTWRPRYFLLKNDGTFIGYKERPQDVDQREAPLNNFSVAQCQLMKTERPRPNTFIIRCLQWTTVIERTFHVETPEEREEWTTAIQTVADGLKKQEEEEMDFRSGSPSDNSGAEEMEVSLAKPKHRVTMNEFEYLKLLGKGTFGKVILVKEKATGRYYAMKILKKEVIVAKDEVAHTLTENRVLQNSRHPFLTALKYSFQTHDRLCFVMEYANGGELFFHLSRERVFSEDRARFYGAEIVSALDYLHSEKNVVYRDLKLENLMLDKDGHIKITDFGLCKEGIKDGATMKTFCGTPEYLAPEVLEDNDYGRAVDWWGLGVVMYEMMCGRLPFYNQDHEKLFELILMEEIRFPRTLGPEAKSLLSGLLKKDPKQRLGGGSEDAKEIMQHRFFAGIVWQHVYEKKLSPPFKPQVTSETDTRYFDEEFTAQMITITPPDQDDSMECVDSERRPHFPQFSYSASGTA

Cn1cc(-c2ccc3nc(-c4cccnc4N)n(-c4ccc(CN5CCN(C(=O)c6ccc(O)c(C=O)c6)CC5)cc4)c3n2)ccc1=O [Example 44, 5-(4-(4-(2-(2-aminopyridin-3-yl)-5-(1-methyl-6-oxo-1,6-dihydropyridin-3-yl)-3H-imidazo[4,5-b]pyridin-3-yl)benzyl)piperazine-1-carbonyl)-2-hydroxybenzaldehyde]
IC50: > 600 nM

Nc1ncccc1-c1nc2ccc(-c3ccccc3)nc2n1-c1ccc(COc2cccc(O)c2C=O)cc1 [Example 137, 2-((4-(2-(2-Aminopyridin-3-yl)-5-phenyl-3H-imidazo[4,5-b]pyridin-3-yl)benzyl)oxy)-6-hydroxybenzaldehyde]
IC50: > 600 nM

N#Cc1ccc(-c2ccc3nc(-c4cccnc4N)n(-c4ccc(CN5CCN(C(=O)c6ccc(O)c(C=O)c6)CC5)cc4)c3n2)cc1 [Example 38, 4-(2-(2-Aminopyridin-3-yl)-3-(4-((4-(3-formyl-4-hydroxybenzoyl)piperazin-1-yl)methyl)phenyl)-3H-imidazo[4,5-b]pyridin-5-yl)benzonitrile]
IC50: 60 to 600 nM

Nc1ncccc1-c1nc2ccc(-c3ccc(F)cc3)nc2n1-c1ccc(CN2CCN(C(=O)c3ccc(O)c(C=O)c3)CC2)cc1 [Example 143, 5-(4-(4-(2-(2-Aminopyridin-3-yl)-5-(4-fluorophenyl)-3H-imidazo[4,5-b]pyridin-3-yl)benzyl)piperazine-1-carbonyl)-2-hydroxybenzaldehyde]
IC50: 60 to 600 nM

Nc1ncccc1-c1nc2ccc(-c3cccc(=O)[nH]3)nc2n1-c1ccc(CN2CCN(C(=O)c3ccc(O)c(C=O)c3)CC2)cc1 [Example 45, 5-(4-(4-(2-(2-Aminopyridin-3-yl)-5-(6-oxo-1,6-dihydropyridin-2-yl)-3H-imidazo[4,5-b]pyridin-3-yl)benzyl)piperazine-1-carbonyl)-2-hydroxybenzaldehyde]
IC50: > 600 nM

Nc1ncccc1-c1nc2ccc(-c3ccccc3)nc2n1-c1ccc(CN2CCC3(CC2)CCN(c2ccc(C=O)c(O)c2)CC3)cc1 [Example 78, 4-(9-(4-(2-(2-Aminopyridin-3-yl)-5-phenyl-3H-imidazo[4,5-b]pyridin-3-yl)benzyl)-3,9-diazaspiro[5.5]undecan-3-yl)-2-hydroxybenzaldehyde]
IC50: 60 to 600 nM

Nc1ncccc1-c1nc2ccc(-c3ccccc3)nc2n1-c1ccc(CN2C[C@H]3CN(C(=O)c4ccc(O)c(C=O)c4)C[C@@H]3C2)cc1 [Example 135, 5-((3aS,6aS)-5-(4-(2-(2-Aminopyridin-3-yl)-5-phenyl-3H-imidazo[4,5-b]pyridin-3-yl)benzyl)octahydropyrrolo[3,4-c]pyrrole-2-carbonyl)-2-hydroxybenzaldehyde]
IC50: 15 to 60 nM

Nc1ncccc1-c1nc2ccc(-c3ccccc3)nc2n1-c1ccc(CN2CC3CCC2CN3c2ccc(C=O)c(O)c2)cc1 (stereo not shown) [Example 127, 4-(5-(4-(2-(2-Aminopyridin-3-yl)-5-phenyl-3H-imidazo[4,5-b]pyridin-3-yl)benzyl)-2,5-diazabicyclo[2.2.2]octan-2-yl)-2-hydroxybenzaldehyde]
IC50: 60 to 600 nM

Nc1ncccc1-c1nc2ccc(-c3ccccc3)nc2n1-c1ccc(CN2CCC3(CCN(c4ccc(C=O)c(O)c4)C3)C2)cc1 (stereo not shown) [Example 82, 4-(7-(4-(2-(2-Aminopyridin-3-yl)-5-phenyl-3H-imidazo[4,5-b]pyridin-3-yl)benzyl)-2,7-diazaspiro[4.4]nonan-2-yl)-2-hydroxybenzaldehyde]
IC50: 60 to 600 nM

Nc1ncccc1-c1nc2ccc(-c3cccc(F)c3)nc2n1-c1ccc(CN2CCN(C(=O)c3ccc(C=O)c(O)c3)CC2)cc1 [Example 41, 4-(4-(4-(2-(2-Aminopyridin-3-yl)-5-(3-fluorophenyl)-3H-imidazo[4,5-b]pyridin-3-yl)benzyl)piperazine-1-carbonyl)-2-hydroxybenzaldehyde]
IC50: 60 to 600 nM

Nc1ncccc1-c1nc2ccc(-c3ccccc3)nc2n1-c1ccc(CN2C3CCC2CN(C(=O)c2ccc(C=O)c(O)c2)C3)cc1 [Example 113, 4-(8-(4-(2-(2-Aminopyridin-3-yl)-5-phenyl-3H-imidazo[4,5-b]pyridin-3-yl)benzyl)-3,8-diazabicyclo[3.2.1]octane-3-carbonyl)-2-hydroxybenzaldehyde]
IC50: 60 to 600 nM

Nc1ncccc1-c1nc2ccc(-c3ccccc3)nc2n1-c1ccc(CN2CCC3(CC2)CN(c2ccc(C=O)c(O)c2)C3)cc1 [Example 73, 4-(7-(4-(2-(2-Aminopyridin-3-yl)-5-phenyl-3H-imidazo[4,5-b]pyridin-3-yl)benzyl)-2,7-diazaspiro[3.5]nonan-2-yl)-2-hydroxybenzaldehyde]
IC50: 60 to 600 nM

Nc1ncccc1-c1nc2ccc(-c3ccccc3)nc2n1-c1ccc(CN2CCCCC(NC(=O)c3ccc(O)c(C=O)c3)C2)cc1 (stereo not shown) [Example 117, N-(1-(4-(2-(2-Aminopyridin-3-yl)-5-phenyl-3H-imidazo[4,5-b]pyridin-3-yl)benzyl)azepan-3-yl)-3-formyl-4-hydroxybenzamide]
IC50: > 600 nM

Nc1ncccc1-c1nc2ccc(-c3ccccc3)nc2n1-c1ccc(CN2CCC(Nc3cccc(C=O)c3O)CC2)cc1 [Example 50, 3-((I-(4-(2-(2-Aminopyridin-3-yl)-5-phenyl-3H-imidazo[4,5-b]pyridin-3-yl)benzyl)piperidin-4-yl)amino)-2-hydroxybenzaldehyde]
IC50: 15 to 60 nM

N#Cc1cccc(-c2ccc3nc(-c4cccnc4N)n(-c4ccc(CN5CCN(C(=O)c6ccc(C=O)c(O)c6)CC5)cc4)c3n2)c1 [Example 35, 3-(2-(2-Aminopyridin-3-yl)-3-(4-((4-(4-formyl-3-hydroxybenzoyl)piperazin-1-yl)methyl)phenyl)-3H-imidazo[4,5-b]pyridin-5-yl)benzonitrile]
IC50: 60 to 600 nM

Nc1ncccc1-c1nc2ccc(-c3ccccc3)nc2n1-c1ccc(CN2C[C@H]3C[C@@H]2CN3c2ccc(C=O)c(O)c2)cc1 [Example 124, 4-((1R,4R)-5-(4-(2-(2-Aminopyridin-3-yl)-5-phenyl-3H-imidazo[4,5-b]pyridin-3-yl)benzyl)-2,5-diazabicyclo[2.2.1]heptan-2-yl)-2-hydroxybenzaldehyde]
IC50: 15 to 60 nM

Nc1ncccc1-c1nc2ccc(-c3ccccc3)nc2n1-c1ccc(CN2C[C@@H]3C[C@H]2CN3C(=O)c2ccc(O)c(C=O)c2)cc1 [Example 121, 5-((1S,4S)-5-(4-(2-(2-Aminopyridin-3-yl)-5-phenyl-3H-imidazo[4,5-b]pyridin-3-yl)benzyl)-2,5-diazabicyclo[2.2.1]heptane-2-carbonyl)-2-hydroxybenzaldehyde]
IC50: 60 to 600 nM

Nc1ncccc1-c1nc2ccc(-c3ccccc3)nc2n1-c1ccc(CN2C[C@@H]3C[C@H]2CN3C(=O)c2ccc(C=O)c(O)c2)cc1 [Example 122, 4-((1S,4S)-5-(4-(2-(2-Aminopyridin-3-yl)-5-phenyl-3H-imidazo[4,5-b]pyridin-3-yl)benzyl)-2,5-diazabicyclo[2.2.1]heptane-2-carbonyl)-2-hydroxybenzaldehyde]
IC50: 15 to 60 nM

Nc1ncccc1-c1nc2ccc(-c3ccccc3)nc2n1-c1ccc(CN2CCCN(c3ccc(C=O)c(O)c3)CC2)cc1 [Example 120, 4-(4-(4-(2-(2-Aminopyridin-3-yl)-5-phenyl-3H-imidazo[4,5-b]pyridin-3-yl)benzyl)-1,4-diazepan-1-yl)-2-hydroxybenzaldehyde]
IC50: 15 to 60 nM
